Values quoted from earlier work in patent US10195206B2, “Two-component pharmaceutical composition for the treatment of pain” (BRIDGE THERAPEUTICS, INC., priority 2005, dated 2019).

Legend:
[1] = in vivo
[2] = in vivo; remark: listed apart in the source

SMILES | solubility in water | half-life [1] | oral and/or gastrointestinal bioavailability [2]
CN1C(C(=O)Nc2ccccn2)=C(O)c2ccccc2S1(=O)=O [Piroxicam, 4-hydroxyl-2-methyl-N-2-pyridinal-2H-1,2-benzothiazine-3-carboximide 1,1-dioxide] | sparingly soluble | approximately 50 hours | 
CO[C@]12CCC3(C[C@@H]1[C@](C)(O)C(C)(C)C)[C@H]1Cc4ccc(O)c5c4[C@@]3(CCN1CC1CC1)[C@H]2O5.Cl [Buprenorphine, 17-(cyclopropylmethyl)-α-(1,1-dimethylethyl)-4,5-epoxy-18,19-dihydro-3-hydroxy-6-methoxy-α-methyl-6,14-ethenomorphian-7-methanol] | limited solubility | approximately 36 hours | poor
